The test deals with T1, Muscarinic acetylcholine receptor M5 (Homo sapiens, UniProt P08912).
T1 sequence (P08912 whole entry): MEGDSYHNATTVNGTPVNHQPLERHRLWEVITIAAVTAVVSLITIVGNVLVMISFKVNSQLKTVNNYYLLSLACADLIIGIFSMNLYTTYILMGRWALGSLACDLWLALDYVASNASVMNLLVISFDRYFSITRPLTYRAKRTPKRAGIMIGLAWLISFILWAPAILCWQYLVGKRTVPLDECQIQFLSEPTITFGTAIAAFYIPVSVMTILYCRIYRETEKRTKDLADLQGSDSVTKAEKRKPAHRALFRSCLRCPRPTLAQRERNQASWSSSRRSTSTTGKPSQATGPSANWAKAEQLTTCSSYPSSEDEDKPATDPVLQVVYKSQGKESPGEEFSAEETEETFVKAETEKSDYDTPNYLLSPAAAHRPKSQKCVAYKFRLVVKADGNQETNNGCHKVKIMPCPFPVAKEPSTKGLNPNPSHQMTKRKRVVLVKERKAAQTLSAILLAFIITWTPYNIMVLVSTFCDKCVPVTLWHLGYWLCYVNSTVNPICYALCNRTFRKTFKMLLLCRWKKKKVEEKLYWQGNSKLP
In words: compound effect on ACh competition at M5, biochemical, [3H]N-methylscopolamine, acetylcholine (AID 2194).

pEC50: −log10 of the molar value.

Compound `COc1ccc(CN2C(=O)C(=O)c3cc(OC(F)(F)F)ccc32)cc1` [VU0238429] had a pEC50 of 6.68.

The term pEC50 denotes the EC50 on a negative log10 scale, so that one unit is a factor of ten. Lower therefore signals a large EC50.
